Twelve molecules from patent publication US7432276B2, “ABCA1 elevating compounds” (CV Therapeutics, Inc., priority 2005, dated 2008) can be followed below.

The assay deals with ABCA1 mRNA. Kind of assay: ABCA1 mRNA induction in THP-1 cells, QuantiGene branched DNA assay. Type of assay: cell-based. Particulars: 10 μM test compound, 18-20 hours. The procedure, abridged: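 THP-1 cells, grown to subconfluence, treated with compounds at 10 and 3 μM in DMEM/BSA for 18–20 h. Lysates hybridized with ABCA1-specific probe 16–18 h at 53 °C; QuantiGene branched DNA luminescence gives fold increase over DMSO.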

`COc1cccc2c1OCC1C2Nc2ccc(Br)cc2C1(C)C` (stereo not drawn) [Number 75, 9-bromo-4-methoxy-7,7-dimethyl-7,12,12a,6a-tetrahydrochromano[4,3-b]quinoline]: the “ABCA1 Induction Fold Increase over DMSO Vehicle” value (shortened to “ABCA1 Induction Fold Increase”) worked out at 7.4 FOLD INCREASE. In the case of `COc1cccc2c1C1Nc3ccc(C(C)(C)C)cc3C(C)(C)C1CO2` (stereo not drawn) [Number 88, 9-(tert-butyl)-1-methoxy-7,7-dimethyl-7,12,12a,6a-tetrahydrochromano[4,3-b]quinoline], the “ABCA1 Induction Fold Increase” value is listed as 6.8 FOLD INCREASE.

For `COc1cccc2c1[C@H]1Nc3ccc(-c4ccc(/C=C/C(=O)O)cc4)cc3C(C)(C)[C@H]1CO2` [Number 115, (2E)-3-[4-((12aS,6aR)-1-methoxy-7,7-dimethyl(7,12,12a,6a-tetrahydrochromano[4,3-b]quinolin-9-yl))phenyl]prop-2-enoic acid], the “ABCA1 Induction Fold Increase” value was 2.2 FOLD INCREASE. Turning to `COc1cc(Br)cc2c1OC[C@H]1[C@H]2Nc2ccc(C(O)(C(F)(F)F)C(F)(F)F)cc2C1(C)C` [Number 66, 2-((12aR,6aR)-2-bromo-4-methoxy-7,7-dimethyl(7,12,12a,6a-tetrahydrochromano[4,3-b]quinolin-9-yl))-1,1,1,3,3,3-hexafluoropropan-2-ol], the “ABCA1 Induction Fold Increase” value is reported as 2.5 FOLD INCREASE.

As for `Cc1cccc2c1OCC1C2Nc2ccc(C(N)=O)cc2C1(C)C` (stereo not drawn) [Number 29, 4,7,7-trimethyl-7,12,12a,6a-tetrahydrochromano[4,3-b]quinoline-9-carboxamide], the “ABCA1 Induction Fold Increase” value amounted to 5.8 FOLD INCREASE.

With `COc1cccc2c1[C@@H]1[C@@H](CO2)C(C)(C)c2ccccc2N1CC(=O)O` [Number 156, 2-((6aS,12aS)-6a,7-dihydro-1-methoxy-7,7-dimethyl-6H-chromeno[4,3-b]quinolin-12(12aH)-yl)acetic acid], the fold induction at 10 µM (Homo sapiens, read-out: ABCA1 Induction Fold Increase over DMSO Vehicle) is 7.6.

Consider `COc1cccc2c1OC[C@H]1C2Nc2ccc(C(O)(C(F)(F)F)C(F)(F)F)cc2C1(C)C` (stereo partly drawn) [Number 34, 2-((6aR)-4-methoxy-7,7-dimethyl(7,12,12a,6a-tetrahydrochromano[4,3-b]quinolin-9-yl))-1,1,1,3,3,3-hexafluoropropan-2-ol], for which the “ABCA1 Induction Fold Increase” value is recorded as 4.5 FOLD INCREASE. The same measure, in the same setting: then `CNS(=O)(=O)Cc1ccc2c(c1)C(C)(C)C1COc3c(OC)cccc3C1N2` (stereo not drawn) [Number 59, {[(4-methoxy-7,7-dimethyl(7,12,12a,6a-tetrahydrochromano[4,3-b]quinolin-9-yl))methyl]sulfonyl}methylamine], with 6.1 FOLD INCREASE; and `COc1cccc2c1OC[C@@H]1[C@H]2Nc2ccc(N3CCS(=O)(=O)CC3)cc2C1(C)C` [Number 20, 4-((6aS,12aR)-4-methoxy-7,7-dimethyl-7,12,12a,6a-tetrahydrochromano[4,3-b]quinolin-9-yl)-1,4-thiazaperhydroine-1,1-dione], with 6.5 FOLD INCREASE. Same read-out and setting: in the case of `COc1ccc(Br)c2c1OCC1C2Nc2ccc(C(N)=O)cc2C1(C)C` (stereo not drawn) [Number 81, 1-bromo-4-methoxy-7,7-dimethyl-7,12,12a,6a-tetrahydrochromano[4,3-b]quinoline-9-carboxamide] it was 1.9 FOLD INCREASE; in that of `COc1cccc2c1[C@H]1Nc3ccc(-c4ccc(CCC(=O)O)cc4)cc3C(C)(C)[C@H]1CO2` [Number 114, 3-[4-((12aS,6aR)-1-methoxy-7,7-dimethyl-7,12,12a,6a-tetrahydrochromano[4,3-b]quinolin-9-yl)phenyl]propanoic acid], 2.7 FOLD INCREASE. With `COc1ccc(-c2ccc3c(c2)C(C)(C)[C@H]2COc4cccc(OC)c4[C@H]2N3)cc1` [Number 112, 1-((12aS,6aR)-1-methoxy-7,7-dimethyl(7,12,12a,6a-tetrahydrochromano[4,3-b]quinolin-9-yl))-4-methoxybenzene], the “ABCA1 Induction Fold Increase” value is reported as 1.7 FOLD INCREASE.
